Measurements taken from ChEMBL document CHEMBL1201862, “PubChem BioAssay data set” (2004).
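Following 48 hours of exposure in 96-well plates, responses at five concentrations were used to interpolate endpoints linearly. At the GI50, growth is halved.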 Calls of active or inactive are those of the source. Cut-off read from the data, not from the text of the source: active = GI50 up to about 1.1 µM and inactive = higher.

Experiments:
Test in all cases: growth of human tumour cells (NCI), 48 h
[1] = test system: 786-0
[2] = test system: BT-549
[3] = test system: CCRF-CEM
[4] = test system: HL-60
[5] = test system: HOP-62
[6] = test system: HT-29
[7] = test system: Hs-578T
[8] = test system: IGROV-1
[9] = test system: M14
[10] = test system: MCF7
[11] = test system: MDA-MB-435
[12] = test system: MDA-N
[13] = test system: NCI-H226
[14] = test system: NCI-H460
[15] = test system: RXF 393
[16] = test system: SK-OV-3
[17] = test system: SNB-75
[18] = test system: T47D
[19] = test system: TK-10
[20] = test system: SF-539

Measured: GI50

O=C(O)CN1CCNCCN(CP(=O)(O)O)CC1
inactive: [1] 4.83 µM | [2] > 100 µM | [3] 4.94 µM | [4] 3.22 µM | [5] > 100 µM | [6] 2.02 µM | [7] > 30.1 µM | [8] 4.15 µM | [9] 16.6 µM | [10] 6.22 µM | [11] > 53 µM | [12] 5.35 µM | [13] > 39.1 µM | [14] 3.44 µM | [15] 6.89 µM | [16] 11.8 µM | [17] 14.2 µM | [18] > 100 µM | [19] > 37.2 µM

CC(=O)OCC1OC(Oc2cc(C)c(O)cc2C/C=C(\C)CC/C=C(\C)C[C@@H](C=C(C)C)OC(C)=O)C(O)C(OC(C)=O)C1OC(C)=O (stereo partly specified)
inactive: [1] 39.1 µM | [2] 16.8 µM | [3] 9.46 µM | [4] 9.79 µM | [5] 28.4 µM | [6] 17.7 µM | [7] 13.6 µM | [8] 33.6 µM | [9] 23.3 µM | [10] 16 µM | [11] 16.5 µM | [12] 25.2 µM | [14] 14.2 µM | [15] 12 µM | [16] > 50 µM | [17] 13.2 µM | [18] 10.1 µM | [19] 22.9 µM

CCOC(=O)N1CCNCCN(C(=O)OCC)CCNCC1
inactive: [1] > 100 µM | [2] > 100 µM | [3] > 100 µM | [4] > 100 µM | [5] > 100 µM | [6] > 100 µM | [7] > 100 µM | [8] > 100 µM | [9] > 100 µM | [10] > 100 µM | [11] > 100 µM | [12] > 100 µM | [13] > 100 µM | [14] > 100 µM | [15] > 100 µM | [20] > 100 µM | [18] > 100 µM | [19] > 100 µM

Cc1cc(CN2CCCCC2)c(O)c(CN2CCCCC2)c1
inactive: [1] > 100 µM | [2] > 100 µM | [3] 41.3 µM | [4] > 100 µM | [5] > 100 µM | [6] > 100 µM | [7] > 100 µM | [8] > 100 µM | [9] > 100 µM | [10] > 100 µM | [11] > 100 µM | [12] > 100 µM | [13] > 100 µM | [14] > 100 µM | [15] > 100 µM | [16] > 100 µM | [17] > 100 µM | [18] > 100 µM | [19] > 100 µM

CCC(C#N)NCc1ccc(CNC(C#N)CC)cc1 (stereo unspecified)
inactive: [1] > 100 µM | [2] > 100 µM | [3] > 100 µM | [4] > 100 µM | [6] > 100 µM | [7] > 100 µM | [8] > 100 µM | [9] > 100 µM | [10] > 100 µM | [11] > 100 µM | [12] > 100 µM | [13] > 100 µM | [14] > 100 µM | [15] > 100 µM | [20] > 100 µM | [16] > 100 µM | [18] > 100 µM | [19] > 100 µM

C/C(=N\O)c1cccc(Nc2c3ccccc3nc3occc23)c1
inactive: [1] 13.4 µM | [2] 3.29 µM | [3] 3.4 µM | [4] 4.74 µM | [5] 3.13 µM | [6] 9.1 µM | [7] 8.61 µM | [8] 2.77 µM | [9] 8.15 µM | [10] 2.39 µM | [11] 2.24 µM | [12] 3.05 µM | [13] 14.1 µM | [14] 5.15 µM | [20] 4.25 µM | [16] 10.4 µM | [18] 2.56 µM | [19] 10.1 µM

c1cc2cc(c1)CN1CCNCCN(CCNCC1)Cc1cccc(c1)CN1CCNCCN(CCNCC1)C2
inactive: [1] > 100 µM | [2] > 100 µM | [5] > 100 µM | [6] > 100 µM | [7] > 100 µM | [8] > 100 µM | [9] > 100 µM | [10] > 100 µM | [11] > 100 µM | [12] > 100 µM | [14] > 100 µM | [20] > 100 µM | [16] > 100 µM | [17] > 100 µM | [18] > 100 µM | [19] > 100 µM

COC(=O)c1cc(NC(=O)Cn2c3ccccc3c3ccccc32)cn1C
inactive: [1] 29.7 µM | [2] 24.9 µM | [3] 39.3 µM | [4] > 100 µM | [5] 25.6 µM | [6] 49.9 µM | [7] 14.2 µM | [8] 24.3 µM | [9] > 100 µM | [10] 59 µM | [11] 78.5 µM | [12] > 100 µM | [13] 21.6 µM | [14] 57.5 µM | [15] 39.1 µM | [20] 23.9 µM | [16] 25.6 µM | [18] > 100 µM | [19] 49.7 µM

OC1CCCN(C2(c3cccs3)CCCCC2)C1 (stereo unspecified)
inactive: [1] > 100 µM | [2] > 100 µM | [4] 74.6 µM | [5] > 100 µM | [6] > 100 µM | [7] > 100 µM | [8] 97.5 µM | [10] > 100 µM | [11] > 100 µM | [12] > 100 µM | [14] > 100 µM | [15] > 100 µM | [16] > 100 µM | [17] > 100 µM | [18] > 100 µM | [19] > 100 µM

COc1cc2c(OC)c3cc(C)oc(=O)c3c(O)c2c(O)c1-c1c(OC)cc2c(OC)c3cc(C)oc(=O)c3c(O)c2c1O
inactive: [1] 22.2 µM | [2] 24.5 µM | [3] 18.6 µM | [4] 15.2 µM | [5] 15.2 µM | [6] 22 µM | [7] 34.2 µM | [8] 14 µM | [9] 18.1 µM | [10] 25.6 µM | [11] 18.2 µM | [13] 20.3 µM | [14] 21.6 µM | [15] 20.1 µM | [20] 17.6 µM | [16] 45.2 µM | [17] 45.1 µM | [18] 36.4 µM | [19] 24.4 µM

COc1cc(C(=O)Nc2nnc(S(N)(=O)=O)s2)cc(OC)c1OC
inactive: [1] > 100 µM | [2] > 100 µM | [4] > 100 µM | [5] > 100 µM | [7] > 100 µM | [9] > 100 µM | [10] > 100 µM | [11] > 100 µM | [12] > 100 µM | [13] > 100 µM | [14] > 100 µM | [15] > 100 µM | [20] > 100 µM | [16] > 100 µM | [18] > 100 µM | [19] > 100 µM
